We go through three compounds from the Kinase Knowledgebase extract (Sharma et al. 2016).

Each structure is given as a SMILES string.

One assay has as its target MAPK14 (human) (UniProt Q16539). Nature of the assay: Inhibition of MAPK14 Kinase Activity. To be noted: concentration not given here.
The next assay concerns the target CDK2 (human) (UniProt P24941). Nature of the assay: Enzyme Assay. To be noted: concentration not given here.

MAPK14 (human), sequence (Q16539 whole entry, looked up): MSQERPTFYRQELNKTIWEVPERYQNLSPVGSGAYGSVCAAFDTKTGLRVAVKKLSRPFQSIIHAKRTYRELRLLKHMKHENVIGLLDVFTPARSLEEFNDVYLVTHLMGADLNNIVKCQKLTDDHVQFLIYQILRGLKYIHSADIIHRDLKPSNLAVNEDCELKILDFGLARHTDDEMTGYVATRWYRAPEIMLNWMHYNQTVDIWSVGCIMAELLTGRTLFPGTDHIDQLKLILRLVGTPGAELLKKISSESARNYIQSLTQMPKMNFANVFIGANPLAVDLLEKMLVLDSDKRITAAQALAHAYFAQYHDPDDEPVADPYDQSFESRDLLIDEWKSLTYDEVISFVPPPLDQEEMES

For `Cn1ccc(C2=C(c3cn(CCCO)c4ncccc34)C(=O)NC2=O)n1`, the inhibition (as a rule, the drop in the measured response relative to a control, in per cent) turned out to be 8% at MAPK14 (human) and 44% on CDK2 (human).

`COc1ncc(C2=C(c3cn(CCCO)c4ncccc34)C(=O)NC2=O)c(OC)n1`: the inhibition was 2% at MAPK14 (human) and 89% on CDK2 (human).

With `O=C1NC(=O)C(c2cn(CCCO)c3ncccc23)=C1c1cnccn1`, the inhibition on MAPK14 (human) was found to be 31%; against CDK2 (human), 30%.
